Source: EP1202628B1, “NOVEL HYPOXANTHINE AND THIOHYPOXANTHINE COMPOUNDS” (EURO-CELTIQUE S.A., priority 1999, dated 2001)
pIC50: −log10 of the molar value.

molecular target: T1, PDE V (Homo sapiens, UniProt O76074); test: Type V phosphodiesterase inhibition (hydrolysis of [3H]-cyclic GMP); format: biochemical; conditions: enzyme isolated from platelets
T1 construct: Fractions that contain PDE V are pooled and dialyzed overnight; from tissue
Procedure: Protocol for Enzyme Isloation: The Type V PDE is isolated using a procedure similar to that previously described by Weishaar et al., Hypertension 15:528, (1990). Briefly, 1-2 units of platelets are suspended in an equal volume of buffer A (20 mM Tris-HCl, pH 7.5, containing 2 mM magnesium acetate, I mM dithiothreitol, and 5 mM Na2EDTA) using a polytron. The proteinase inhibitor phenylmethylsulfonyl fluoride (PMSF) are also included in this buffer at a final concentration of 200 uM. This and all subsequent procedures are performed at 0-4°C. The homogenate is then centrifuged at 100,000 rpm for 60 minutes. The supernatant is then removed and filtered through four layers of gauze and applied to a DEAE-Trisacryl M column. The column is washed with several bed volumes of buffer B (20 mM Tris-HCl, pH 7.5, containing 2 mM magnesium acetate, 1 mM dithiothreitol, and […]) and eluted by two successive linear NaCl gradients (0.05-0.15 M, 300 ml total; 0.15-0.40 M, 200 ml total). Five ml fractions are collected and assayed for cyclic AMP and cyclic GMP PDE activity. Fractions that contain PDE V are pooled and dialyzed overnight against 4 L of buffer C (20 mM Tris-HCl, pH 7.5, containing 2 mM magnesium acetate and proteinase inhibitors). The dialyzed PDE V is then concentrated to 10% of the original volume, diluted to 50% with ethylene glycol monoethyl ether and stored at -20°C. PDE V can typically be retained for up to four weeks with little or no loss of activity.
Measuring Type V PDE Activity: Enzyme activity is assessed by measuring the hydrolysis of [^3H]-cyclic GMP, as described by Thompson et al. (Thompson, W.J., Teraski, W.L., Epstein, P.N., Strada, S.J.: Adv. Cyclic Nucleotide Res. 10:69, 1979). The cyclic GMP concentration used in this assay is 0.2 uM, which approximates to the Km value. Protein concentration is adjusted to ensure that no more than 15% of the available substrate is hydrolyzed during the incubation period.
All test compounds are dissolved in dimethyl sulfoxide (final concentration of 2.5%). This concentration of dimethyl sulfoxide inhibits enzyme activity by approximately 10%. The reference Type V PDE inhibitor zaprinast is evaluated with each assay.
The compounds are tested over concentration range: 0.1, 1, 10, 100 uM (n=1), and IC50 determinations are made using 5 appropriate concentrations (n=2).

In order of rising pIC50:
1. COc1ccc(Cn2cnc(=O)c3[nH]c(C(C)(C)O)nc32)cc1OC1CCCC1 [3-(3-Cyclopentyloxy-4-methoxy-benzyl)-8-(1-hydroxy-1-methyl-ethyl)-hypoxanthine]  3.71
2. COc1ccc(Cn2cnc(=O)c3[nH]c(C(C)C)nc32)cc1OC1CCCC1 [3-(3-Cyclopentyloxy-4-methoxy-benzyl)-8-isopropyl-hypoxanthine]  4.31
3. COc1ccc(Cn2cnc(=O)c3[nH]c(C(C)(C)OCc4ccc(F)cc4)nc32)cc1OC [3-(3,4-Dimethoxybenzyl)-8-(1-(4-fluorobenzyloxy)-1-methyl-ethyl)-hypoxanthine]  4.45
4. COc1ccc(Cn2cnc(=O)c3[nH]c(C(C)(C)OCc4ccc(F)cc4)nc32)cc1OC1CCCC1 [3-(3-Cyclopentyloxy-4-methoxy-benzyl)-8-(1-(4-fluorobenzyloxy)-1-methyl-ethyl)-hypoxanthine]  4.84
5. COc1ccc(Cn2cnc(=O)c3[nH]c(C(C)(C)OCc4ccccc4)nc32)cc1OCc1ccccc1 [3-(3-benzyloxy-4-methoxy-benzyl)-8-(1-benzyloxy-1-methyl-ethyl)-hypoxanthine]  4.90
6. COc1ccc(Cn2cnc(=O)c3[nH]c(C(C)C)nc32)cc1OC [3-(3,4-Dimethoxy-benzyl)-8-(1-methyl-ethyl)-hypoxanthine]  4.98
7. COc1ccc(Cn2cnc(=O)c3[nH]c(C(C)(C)OCc4ccccc4)nc32)cc1OC [8-(1-Benzyloxy-1-methyl-ethyl)-3-(3,4-dimethoxybenzyl)-hypoxanthine]  5.00
8. COc1ccc(Cn2cnc(=O)c3[nH]c(C(C)(C)OCc4ccccc4)nc32)cc1OC1CCCC1 [8-(1-benzyloxy-1-methyl-ethyl)-3-(3-cyclopentyloxy-4-methoxy-benzyl)-hypoxanthine]  5.08
9. COc1ccc(Cn2cnc(=O)c3[nH]c(COCc4ccccc4)nc32)cc1OC1CCCC1 [8-Benzyloxymethyl-3-(3-cyclopentyloxy-4-methoxy-benzyl)-hypoxanthine]  5.12
10. CC(C)c1nc2c([nH]1)c(=O)ncn2Cc1ccc(Cl)cc1 [3-(4-Chloro-benzyl)-8-(1-methyl-ethyl)-hypoxanthine]  5.12
11. CC(C)c1nc2c([nH]1)c(=O)ncn2Cc1cccc(Cl)c1 [3-(3-Chloro-benzyl)-8-(1-methyl-ethyl)-hypoxanthine]  5.20
